These are literature values, as cited in patent publication US6656217B1, “Medical device coated with a polymer containing a nitric oxide releasing organometallic nitrosyl compound useful for the prevention of platelet aggregation” (NovoVascular, Inc., priority 1996, dated 2003).

The data set concerns platelet aggregation.

With `[Cl][Ru]([Cl])[Cl].[N-]=O` [ruthenium nitrosyl trichioride], the “inhibition of platelet aggregation by nitric oxide generation from light activation” value was “failed to inhibit platelet aggregation”.
